Measured values as given in patent publication US20240002441A1, “PEPTIDES AND USES THEREOF IN MODULATION OF AMYLOID-BETA PROTEIN DEGRADING PROTEASES” (priority 2020, published 2024).

How the values were obtained:
[1] = biological target: T1, ACE2 (Homo sapiens, UniProt Q9BYF1); assay: QFS assay of Aβ-degrading enzymes: ACE2 (Example 6); assay type: biochemical
T1 construct: purchased R & D systems 933-ZN-010
Description: (§1) Plate reader-based enzyme assays were performed using a quenched fluorescent substrate (QFS) in a 96-well format using a SpectraMAX M4 Microplate reader (Molecular Devices). The increase in fluorescence following addition of QFS (40 μM) was taken as evidence of enzyme activity. Fluorescence was monitored over 2 h at 37° C. using κEx=320 nm and λEm=405 nm. Assays were conducted in black 96-well plates. Specific enzyme activity was expressed as a rate of substrate cleavage calculated using a standard curve of 7-methoxy-coumarin-4-acetic acid.
(§2) In all plate reader-based enzyme assays using QFS, the reaction rate (μmol of substrate cleaved/min) was calculated using linear regression analysis (GraphPad Prism software version 8.01). The reaction rates calculated were used to generate the enzyme kinetic parameters Vmax and Km through non-linear regression analysis (GraphPad Prism software, version 8.01; Michaelis-Menten equation). Where indicated, enzyme activity in the presence of peptide was expressed as a % of the enzyme alone. Data were expressed as mean±SEM and statistical significance was determined using t-tests or one-way ANOVAs followed by Tukey's post-hoc test. P<0.05 was considered as statistically significant. In all assays conducted using 96-well plates, the reaction mixtures in each well were considered an independent experiment.
SEQ ID NO:2 was assessed in a QFS assay against enzymes NEP, ECE1, ECE2, ACE1, ACE2, IDE and MMP-2 using the method in Example 2 and the following procedure. NEP, ACE1, ECE2 (0.05 ng/μL), ACE2, IDE (0.10 ng/μL), and ECE1 (6.4 ng/μL) were incubated with SEQ ID NO:2 (0.9-26 μM) or scrambled control (9 μM) for 1 h at 37° C. Prior to use, MMP2 (0.50 ng/μL) was activated using p-aminophenylmercuric acetate to a final concentration of 100 μM for 1 h at 37° C. Following activation, MMP2 was incubated with SEQ ID NO:2 for 1 h at 37° C. before adding the appropriate QFS.

[2] = biological target: T1, ACE2; assay: ACE2 enzyme kinetics study with QFS (Example 5); assay type: biochemical; details: rhACE2 0.1 ng/μL, ACE2 QFS 0-100 μM; pre-incubation 1 h at 37° C.
Description: as §1
as §2, with “experiment. […]” for “experiment.”

T1 sequence (Q9BYF1 18-805): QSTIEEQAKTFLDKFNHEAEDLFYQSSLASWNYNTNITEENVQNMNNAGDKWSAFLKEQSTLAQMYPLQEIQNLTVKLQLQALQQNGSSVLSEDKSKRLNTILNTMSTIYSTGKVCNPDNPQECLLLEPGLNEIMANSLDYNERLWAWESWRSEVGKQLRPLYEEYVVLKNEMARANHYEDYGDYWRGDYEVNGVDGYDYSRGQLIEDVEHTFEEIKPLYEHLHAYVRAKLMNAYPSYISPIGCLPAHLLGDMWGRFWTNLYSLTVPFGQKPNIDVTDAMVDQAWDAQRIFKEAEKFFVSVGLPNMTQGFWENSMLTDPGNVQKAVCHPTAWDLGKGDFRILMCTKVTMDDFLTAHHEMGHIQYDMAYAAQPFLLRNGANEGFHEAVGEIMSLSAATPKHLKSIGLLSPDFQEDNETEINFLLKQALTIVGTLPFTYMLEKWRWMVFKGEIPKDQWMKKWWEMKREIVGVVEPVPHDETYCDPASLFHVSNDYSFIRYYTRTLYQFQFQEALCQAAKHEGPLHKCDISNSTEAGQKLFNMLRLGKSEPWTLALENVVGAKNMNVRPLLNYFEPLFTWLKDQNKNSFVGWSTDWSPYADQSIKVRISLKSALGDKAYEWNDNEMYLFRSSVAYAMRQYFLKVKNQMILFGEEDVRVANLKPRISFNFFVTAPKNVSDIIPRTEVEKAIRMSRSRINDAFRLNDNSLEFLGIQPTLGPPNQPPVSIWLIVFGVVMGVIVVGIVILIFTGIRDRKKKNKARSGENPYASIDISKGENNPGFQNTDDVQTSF

Substance: H-SLFELGKMIL-NH2 [SEQ ID NO:2, H2N-SLFELGKMIL-NH2]
- ACE2 activity compared with respective enzyme alone ([1]; peptide 2 μM (FIG. 2c)): significantly increased
- activity of ACE2 as % of enzyme alone controls ([1]; peptide 9 μM): 283%
- ACE2 activity, concentration dependence ([1]; peptide 0.9-26 μM): increased the activity
- vmax of rhACE2 in the presence of peptide [2]: 0.09±0.002 μmol substrate cleaved/min
